Test results: patent US7572818B2, “2-pyridylethylbenzamide derivative” (Bayer Cropscience S.A., priority 2002, dated 2009)

Legend:
Septoria tritici = assay: In vivo test of activity on Septoria tritici (wheat septoria disease); details: 500 g/ha, preventive spray 24 h before inoculation
Procedure: In Vivo Test of Activity on Septoria tritici (Wheat Septoria Disease
(§1) An aqueous solution of the active material to be tested is prepared at a concentration of 2 g/l by grinding in solution 1 or solution 2:
(§2) • Water • Tween 80 diluted to 10% in water: 5 μl/mg of active material • Clay in a sufficient amount for active material+clay to equal 100 mg; Solution 2
(§3) Concentrated solution containing surfactants and adjuvants conventionally used: 200 μl/mg of active material.
(§4) The aqueous solution is diluted with water so as to obtain the desired concentration.
Wheat plants of the Scipion variety are sown in a 50/50 pozzolan/peat substrate and maintained at 12° C. The treatment is carried out at the 1-leaf stage (10 cm) by spraying the aqueous suspension. The untreated control plants are sprayed with water.
24 hours after treatment, the plants are inoculated by spraying a solution of Septoria tritici spores (500 000 spores/ml) from a 7-day culture.
The wheat plantlets are then maintained at 18-20° C. in a humid atmosphere for 72 hours, and then at 90% relative humidity. The effectiveness of the products is evaluated relative to the control plants, 21 to 28 days after the contamination.
(§5) The effectiveness of the molecules is estimated, at 500 g/ha, 250 g/ha or 330 ppm, by the percentage of control relative to untreated plants. Under these conditions, good effectiveness is defined as more than 80% effectiveness. Average effectiveness is defined as an effectiveness between 50 and 80%. Poor effectiveness is defined as an effectiveness between 10 and 50% and zero effectiveness is defined as less than 10% effectiveness.

Alternaria brassicae = assay: In vivo test of activity on Alternaria brassicae (crucifer black spot) on radish; details: preventive spray 24 h before inoculation
Procedure: In Vivo Test of Activity on Alternaria brassicae (Crucifer Black Spot)
as §1, §2, §3, §4
Radishes of the Pernot variety are sown in a 50/50 pozzolan/peat substrate and maintained at 18-22° C. The treatment is carried out by spraying the aqueous suspension. The untreated control plants are sprayed with water. 24 hours after treatment, the plants are inoculated by spraying a solution of Alternaria brassicae spores (40 000 spores/ml) originating from a 12-day culture.
The radish plants are then maintained at 18-20° C. in a humid atmosphere. The effectiveness of the products is evaluated relative to the control plants after seven to eight days of incubation.
as §5

Botrytis cinerea = assay: In vivo test of activity on Botrytis cinerea on cucumber; details: preventive spray 24 h before inoculation
Procedure: In Vivo Test of Activity on Botrytis cinerea on Cucumber
as §1, §2, §3, §4
Cucumbers of the Marketer variety are sown in a 50/50 pozzolan/peat substrate and maintained at 18-22° C. The treatment is carried out by spraying the aqueous suspension. The untreated control plants are sprayed with water.
24 hours after treatment, the plants are inoculated by spraying a solution of Botrytis cinerea spores (150 000 spores/ml) originating from a 15-day culture.
The cucumber plants are then maintained at 11-15° C. in a humid atmosphere. The effectiveness of the products is evaluated relative to the control plants after seven to eight days of incubation.
as §5

Pyrenophora teres = assay: In vivo test of activity on Pyrenophora teres (barley net blotch); details: preventive spray 24 h before inoculation
Procedure: In Vivo Test of Activity on Pyrenophora teres (Barley Net Blotch)
as §1, §2, §3, §4
Barley plants of the Express variety are sown in a 50/50 pozzolan/peat substrate and maintained at 12° C. The treatment is carried out at the 1-leaf stage (10 cm) by spraying the aqueous suspension. The untreated control plants are sprayed with water.
24 hours after treatment, the plants are inoculated by spraying a solution of Pyrenophora teres spores (10 000 spores/ml) originating from a 10-day culture.
The barley plants are then maintained at 18° C. in a humid atmosphere. The effectiveness of the products is evaluated relative to the control plants after eight to fifteen days of incubation.
as §5

Measured: effectiveness (percentage of control relative to untreated plants)

CCc1ccc(C(=O)NCCc2ncc(C(F)(F)F)cc2Cl)cc1 [Compound A-21]
good to average: Septoria tritici

O=C(NCCc1ncc(C(F)(F)F)cc1Cl)c1ccccc1C(F)(F)F [Compound A-20]
good to average: Alternaria brassicae; 250 g/ha | Alternaria brassicae; 330 ppm | Alternaria brassicae; 500 g/ha | Botrytis cinerea; 250 g/ha | Botrytis cinerea; 330 ppm | Botrytis cinerea; 500 g/ha | Septoria tritici | Pyrenophora teres; 250 g/ha | Pyrenophora teres; 330 ppm | Pyrenophora teres; 500 g/ha

O=C(NCCc1ncc(C(F)(F)F)cc1Cl)c1ccc(Cl)cc1Cl [Compound A-6]
good to average: Alternaria brassicae; 500 g/ha | Septoria tritici | Pyrenophora teres; 500 g/ha

O=C(NCCc1ncc(C(F)(F)F)cc1Cl)c1ccccc1I [Compound A-45]
good to average: Alternaria brassicae; 250 g/ha | Alternaria brassicae; 330 ppm | Botrytis cinerea; 250 g/ha | Botrytis cinerea; 330 ppm | Pyrenophora teres; 250 g/ha | Pyrenophora teres; 330 ppm

O=C(NCCc1ncc(C(F)(F)F)cc1Cl)c1ccc(F)cc1C(F)(F)F [Compound A-73]
good to average: Alternaria brassicae; 250 g/ha | Alternaria brassicae; 330 ppm | Botrytis cinerea; 250 g/ha | Botrytis cinerea; 330 ppm | Pyrenophora teres; 250 g/ha | Pyrenophora teres; 330 ppm

CCCc1ccc(C(=O)NCCc2ncc(C(F)(F)F)cc2Cl)cc1 [Compound A-22]
good to average: Septoria tritici

COc1ccc(C(=O)NCCc2ncc(C(F)(F)F)cc2Cl)cc1 [Compound A-16]
good to average: Septoria tritici

O=C(NCCc1ncc(C(F)(F)F)cc1Cl)c1ccccc1Br [Compound A-46]
good to average: Alternaria brassicae; 250 g/ha | Alternaria brassicae; 330 ppm | Botrytis cinerea; 250 g/ha | Botrytis cinerea; 330 ppm | Pyrenophora teres; 250 g/ha | Pyrenophora teres; 330 ppm

O=C(NCCc1ncc(C(F)(F)F)cc1Cl)c1c(F)cccc1I [Compound A-174]
good to average: Alternaria brassicae; 330 ppm | Botrytis cinerea; 330 ppm | Pyrenophora teres; 330 ppm

O=C(NCCc1ncc(C(F)(F)F)cc1Cl)c1ccc(F)cc1F [Compound A-5]
good to average: Septoria tritici | Pyrenophora teres; 500 g/ha

O=C(NCCc1ncc(C(F)(F)F)cc1Cl)c1ccccc1F [Compound A-4]
good to average: Alternaria brassicae; 500 g/ha | Septoria tritici | Pyrenophora teres; 500 g/ha

O=C(NCCc1ncc(C(F)(F)F)cc1Cl)c1c(F)cccc1C(F)(F)F [Compound A-173]
good to average: Alternaria brassicae; 250 g/ha | Alternaria brassicae; 330 ppm | Botrytis cinerea; 330 ppm | Pyrenophora teres; 330 ppm

CCCCc1ccc(C(=O)NCCc2ncc(C(F)(F)F)cc2Cl)cc1 [Compound A-23]
good to average: Septoria tritici
